# From PMC6474793 (Biochemistry, 2018)
# Tests used:
# [1] = Fe binding in CAS assay; reported previously; cited from earlier work
# [2] = target: BauB (Acinetobacter baumannii, UniProt Q76HK0); assay: BauB binding by intrinsic Trp fluorescence quenching
compound,measurement,setting,value
"C[C@@H]1ON(CCc2c[nH]cn2)C(=O)[C@H]1NC(=O)c1cccc(O)c1O [compound 1, acinetobactin]",CAS (+/-),[1],+
same,Kd,[2],300 ± 100 nM
